From PMC9219824, “Antiplasmodial Cyclodecapeptides from Tyrothricin Share a Target with Chloroquine” (Antibiotics, 2022) come the findings set out here.

SMILES strings stand for the structures. Like-named read-outs stand apart in the source and are kept apart here. Square brackets hold non-standard residues; d marks the D form. Peptide text beside a SMILES is read from it. Orn = NCCC[C@H](N)C(=O)O

The nature of data set [1]: Toxicity to COS-1 cells, CellTiter Blue viability. Conditions: African green monkey, resazurin (CellTiter Blue), read-out: Toxicity LC50, COS Cells. The class given is cell-based. As for the experimental part:
COS-1 cells were cultured in DMEM containing 0.9 g/L glucose, 0.12% NaHCO3, 10% fetal calf serum and 1% penicillin–streptomycin at 37 °C and under an atmosphere of 5% CO2 [95]. Twenty hours before the assay, the cells were transferred to 96-well plates at a density of 1.5 × 10^4 cells/well. The peptides from the dilution series were added to each well and incubated for 24 h. The cell viability was measured by adding 20 μL/well resazurin reagent (CellTiter Blue™), followed by four hours incubation at room temperature in the dark and measurement of the absorbance at 560 nm and 600 nm in the BioRad microplate reader.
(§1) The data obtained from spectrophotometric measurement of the plates following the lactate dehydrogenase (Malstat) assay were converted to percentage growth inhibition using the data analysis method described by Rautenbach et al.. The background was obtained from control wells in which the parasites were killed with 100 µM GS while total growth was from the wells that were not submitted to peptides. The background for the hemolysis evaluation was from wells in which the uninfected erythrocytes were lysed using 100 µM GS while growth control was from the wells with uninfected erythrocytes that received no peptides. The percentage COS-1 cell death (CellTiter Blue™ assay) was similarly calculated from absorbance values. All the dose–response assay data were evaluated using GraphPad Prism 4.03 (GraphPad Software, San Diego, CA, USA) followed by non-linear regression and sigmoidal curves were fitted (having variable slope and a constant difference of 100 between the top and bottom plateau). Following calculation of the 50% P. falciparum inhibitory concentration (IC50), 50% hemolytic concentration (HC50) and 50% lethal concentration (LC50) for COS-1 cells.

In another data set the test system is CQS P. falciparum 3D7. In words: microbe, parasite or virus in culture. It counts as cell-based, Plasmodium falciparum. As for the experimental part:
(§2) The antimalarial assays were carried out according to the method of Nkhoma et al.. […] On the day of the assay, the parasitemia was determined following observation by light microscopy after Giemsa staining of a thin blood smear from the culture. The cultures at young trophozoite stage were diluted to 2% parasitemia and 2% hematocrit by addition of fresh RPMI medium and uninfected erythrocytes. This culture suspension was distributed in 96-well culture plates at 90 µL/well. […] Peptide solvent and medium (10 µL/well) was used as sterility control and in growth control and 10 μL 1.0 mM GS was used as positive control. Assays were carried out in at least three biological repeats each consisting of three technical repeats to ascertain reproducibility.
(§3) The culture suspension was frozen away at −20 °C until determination of the residual lactate dehydrogenase activity of the parasites by the Malstat assay, as adapted from Gomez et al..
(§4) For the Malstat assay, the plates were transferred to −80 °C for 1 h following overnight storage at −20 °C to ensure that all the suspensions in each well of the 96-well plate were frozen. The plates were then thawed at room temperature. The Malstat reagent consisted of 200 μL Triton X-100, 2 g L-lactic acid (substrate), 0.66 g Tris-HCl buffer and 0.011 g of 3-acetylpyridine adenine dinucleotide (APAD) (coenzyme for parasite lactate dehydrogenase) in 100 mL analytical quality water set to a pH of 9.0 [93]. […] A 15 µL aliquot of the thawed and properly mixed suspension from the assay plates was added to 100 µL of the Malstat reagent, followed by addition of 25 µL of the NBT/PES solution. The reaction mixtures were then incubated at room temperature in the dark for 30 min followed by spectrophotometric measurement of the absorbance of the reduced APAD at 620 nm using a Model 680 Microplate reader from BioRad.
(§5) The data obtained from spectrophotometric measurement of the plates following the lactate dehydrogenase (Malstat) assay were converted to percentage growth inhibition using the data analysis method described by Rautenbach et al.. The background was obtained from control wells in which the parasites were killed with 100 µM GS while total growth was from the wells that were not submitted to peptides. […] The percentage COS-1 cell death (CellTiter Blue™ assay) was similarly calculated from absorbance values.

A further data set concerns CQR P. falciparum Dd2. As to the kind of experiment: microbe, parasite or virus in culture. The class given is cell-based, Plasmodium falciparum. As to conditions: for IC50: 48 h, Malstat, ± SEM, read-out: IC50, CQR P. falciparum Dd2; for Resistance Index IC50Dd2/IC503D7: first value of cell; for Resistance Index IC50Dd2/IC50D10: second value of cell. The procedure: as §2, §3, §4, §5

Another data set deals with CQI P. falciparum D10. In words: microbe, parasite or virus in culture. The class given is cell-based, Plasmodium falciparum. As to conditions: for IC50: 48 h, Malstat, ± SEM; for Selectivity Index IC50D10/IC50 (COS cells): second value of cell. As for the experimental part:
The antimalarial assays were carried out according to the method of Nkhoma et al.. Once the cultures reached a parasitemia of 5–15%, they were synchronized four days prior to the day of the assay as described above which allowed the cultures to recover from the stress caused by the D-sorbitol. On the day of the assay, the parasitemia was determined following observation by light microscopy after Giemsa staining of a thin blood smear from the culture. The cultures at young trophozoite stage were diluted to 2% parasitemia and 2% hematocrit by addition of fresh RPMI medium and uninfected erythrocytes. This culture suspension was distributed in 96-well culture plates at 90 µL/well. The peptides and CQ diluted in culture medium lacking albumax II were added to the cultures in triplicate at 10 µL/well to give a total volume of 100 µL/well. Peptide solvent and medium (10 µL/well) was used as sterility control and in growth control and 10 μL 1.0 mM GS was used as positive control. Assays were carried out in at least three biological repeats each consisting of three technical repeats to ascertain reproducibility.
For the activity determination against parasites, plates were incubated at 37 °C for 48 h under an atmosphere of 3% CO2, 4% O2 and 93% N2. The culture suspension was frozen away at −20 °C until determination of the residual lactate dehydrogenase activity of the parasites by the Malstat assay, as adapted from Gomez et al..
For the Malstat assay, the plates were transferred to −80 °C for 1 h following overnight storage at −20 °C to ensure that all the suspensions in each well of the 96-well plate were frozen. The plates were then thawed at room temperature. The Malstat reagent consisted of 200 μL Triton X-100, 2 g L-lactic acid (substrate), 0.66 g Tris-HCl buffer and 0.011 g of 3-acetylpyridine adenine dinucleotide (APAD) (coenzyme for parasite lactate dehydrogenase) in 100 mL analytical quality water set to a pH of 9.0 [93]. The lactate dehydrogenase reaction was initiated by addition of a second solution, NBT/PES solution composed of 1.96 mM nitro blue tetrazolium (NBT) and 0.24 mM phenazine ethosulfate (PES) which was always protected from light. A 15 µL aliquot of the thawed and properly mixed suspension from the assay plates was added to 100 µL of the Malstat reagent, followed by addition of 25 µL of the NBT/PES solution. The reaction mixtures were then incubated at room temperature in the dark for 30 min followed by spectrophotometric measurement of the absorbance of the reduced APAD at 620 nm using a Model 680 Microplate reader from BioRad.
as §1

[2] abbreviates: 48 h, Malstat, ± SEM, read-out: IC50, CQS P. falciparum 3D7.

As to `CC(C)C[C@@H]1NC(=O)[C@H](CCCN)NC(=O)[C@H](C(C)C)NC(=O)[C@H](Cc2ccccc2)NC(=O)[C@H](CCC(N)=O)NC(=O)[C@H](CC(N)=O)NC(=O)[C@@H](Cc2ccccc2)NC(=O)[C@H](Cc2ccccc2)NC(=O)[C@@H]2CCCN2C(=O)[C@@H](Cc2ccccc2)NC1=O` [PhcA, phenycidine A] (cyclo(FV[Orn]L[dF]PF[dF]NQ)), the CC50 at 24 h in data set [1] turned out to be 8000 nM. This compound registered an IC50 with CQS P. falciparum 3D7 (CQS 3D7, 48 h) of 23 ± 7 nM. For the same compound, in the data set with CQR P. falciparum Dd2, the IC50 turned out to be 511 ± 96 nM, the “Resistance Index IC50Dd2/IC503D7” value was found to be 22 and the “Resistance Index IC50Dd2/IC50D10” value worked out at 10. Further, in the data set on CQI P. falciparum D10, the IC50 was 52 ± 17 nM and the “Selectivity Index IC50D10/IC50 (COS cells)” value came out at 154.

Consider `CC(C)C[C@@H]1NC(=O)[C@H](CCCN)NC(=O)[C@H](C(C)C)NC(=O)[C@H](Cc2c[nH]c3ccccc23)NC(=O)[C@H](CCC(N)=O)NC(=O)[C@H](CC(N)=O)NC(=O)[C@@H](Cc2c[nH]c3ccccc23)NC(=O)[C@H](Cc2c[nH]c3ccccc23)NC(=O)[C@@H]2CCCN2C(=O)[C@@H](Cc2ccccc2)NC1=O` [TpcC, tryptocidine C] (cyclo(L[dF]PW[dW]NQWV[Orn])), for which, in data set [1], the CC50 at 24 h stood at 10000 nM. Further, in the data set with CQS P. falciparum 3D7 (setting [2]), the IC50 is 126 ± 28 nM. Besides, in the data set on CQR P. falciparum Dd2, the IC50 came to 398 ± 94 nM, the “Resistance Index IC50Dd2/IC503D7” value turned out to be 3 and the “Resistance Index IC50Dd2/IC50D10” value is recorded as 9. Moreover, in the data set with CQI P. falciparum D10, the concentration for half-maximal inhibition (IC50) is 42 ± 17 nM and the “Selectivity Index IC50D10/IC50 (COS cells)” value came out at 238. In addition, the “increase in activity towards the CQI D10 strain” value with CQI P. falciparum D10 (compared with 3D7) is on record as “about a three-fold increase in activity”.

For the compound `CC(C)C[C@@H]1NC(=O)[C@H](CCCN)NC(=O)[C@H](C(C)C)NC(=O)[C@H](Cc2ccc(O)cc2)NC(=O)[C@H](CCC(N)=O)NC(=O)[C@H](CC(N)=O)NC(=O)[C@@H](Cc2ccccc2)NC(=O)[C@H](Cc2ccccc2)NC(=O)[C@@H]2CCCN2C(=O)[C@@H](Cc2ccccc2)NC1=O` [TrcA, tyrocidine A] (cyclo(V[Orn]L[dF]PF[dF]NQY)), the CC50 at 24 h in data set [1] was 6000 nM. Also, the half-inhibitory concentration (IC50) in the data set on CQS P. falciparum 3D7 (setting [2]) was 41 ± 12 nM; with CQR P. falciparum Dd2 it was 1800 ± 319 nM. In the data set on CQI P. falciparum D10, the “Selectivity Index IC50D10/IC50 (COS cells)” value is reported as 51.
